Assay [1] deals with T1, Polyunsaturated fatty acid lipoxygenase ALOX15 (Homo sapiens, UniProt P16050).
T1 sequence (P16050 whole entry): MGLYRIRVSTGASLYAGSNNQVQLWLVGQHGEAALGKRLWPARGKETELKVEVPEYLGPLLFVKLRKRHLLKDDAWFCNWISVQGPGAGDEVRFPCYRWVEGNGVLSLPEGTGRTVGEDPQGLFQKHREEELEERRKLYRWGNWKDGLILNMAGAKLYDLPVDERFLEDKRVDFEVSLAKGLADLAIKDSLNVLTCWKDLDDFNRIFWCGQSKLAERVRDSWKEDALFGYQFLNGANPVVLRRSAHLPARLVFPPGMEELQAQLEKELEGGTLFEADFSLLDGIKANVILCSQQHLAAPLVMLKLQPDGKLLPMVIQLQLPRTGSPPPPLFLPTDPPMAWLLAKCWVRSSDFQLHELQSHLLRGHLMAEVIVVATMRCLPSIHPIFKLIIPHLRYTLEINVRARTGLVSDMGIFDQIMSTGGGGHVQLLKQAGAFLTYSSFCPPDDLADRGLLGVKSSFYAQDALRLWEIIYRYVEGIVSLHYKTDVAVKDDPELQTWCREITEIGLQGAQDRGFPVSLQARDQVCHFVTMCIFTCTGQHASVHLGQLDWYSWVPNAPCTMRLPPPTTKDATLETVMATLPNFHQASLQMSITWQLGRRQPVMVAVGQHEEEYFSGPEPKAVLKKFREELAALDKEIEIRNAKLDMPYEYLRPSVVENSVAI
The experiment in a line: Inhibition of human 15-LOX-1 using arachidonic acid as substrate by cell based assay.

Assay [2] has as its target T1, Polyunsaturated fatty acid lipoxygenase ALOX15. The experiment in a line: Inhibition of human 15-LOX-1 using arachidonic acid as substrate.
Assay [3] addresses T2, Prostaglandin G/H synthase 2 (Homo sapiens) (UniProt P35354).
T2 sequence (whole entry): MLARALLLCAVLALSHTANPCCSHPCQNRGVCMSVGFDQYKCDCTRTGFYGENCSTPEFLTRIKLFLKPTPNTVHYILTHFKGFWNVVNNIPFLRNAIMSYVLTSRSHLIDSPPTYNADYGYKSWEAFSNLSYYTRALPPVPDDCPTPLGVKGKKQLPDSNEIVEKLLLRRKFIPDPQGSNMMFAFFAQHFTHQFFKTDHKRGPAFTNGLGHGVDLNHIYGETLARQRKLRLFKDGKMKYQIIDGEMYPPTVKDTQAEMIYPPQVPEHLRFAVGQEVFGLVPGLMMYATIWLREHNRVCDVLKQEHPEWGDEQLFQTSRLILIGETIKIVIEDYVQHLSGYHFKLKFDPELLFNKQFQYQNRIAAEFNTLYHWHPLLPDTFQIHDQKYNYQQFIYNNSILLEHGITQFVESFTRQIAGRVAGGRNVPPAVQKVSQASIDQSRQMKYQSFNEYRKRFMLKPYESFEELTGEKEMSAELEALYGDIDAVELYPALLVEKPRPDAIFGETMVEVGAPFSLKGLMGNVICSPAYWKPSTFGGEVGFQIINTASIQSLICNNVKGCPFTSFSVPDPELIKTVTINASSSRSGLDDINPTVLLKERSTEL
Kind of assay: Inhibition of COX2 (unknown origin) using arachidonic acid as substrate at 10 uM.

Assay [4] addresses T3, Polyunsaturated fatty acid lipoxygenase ALOX12 (Homo sapiens) (UniProt P18054).
T3 sequence (whole entry): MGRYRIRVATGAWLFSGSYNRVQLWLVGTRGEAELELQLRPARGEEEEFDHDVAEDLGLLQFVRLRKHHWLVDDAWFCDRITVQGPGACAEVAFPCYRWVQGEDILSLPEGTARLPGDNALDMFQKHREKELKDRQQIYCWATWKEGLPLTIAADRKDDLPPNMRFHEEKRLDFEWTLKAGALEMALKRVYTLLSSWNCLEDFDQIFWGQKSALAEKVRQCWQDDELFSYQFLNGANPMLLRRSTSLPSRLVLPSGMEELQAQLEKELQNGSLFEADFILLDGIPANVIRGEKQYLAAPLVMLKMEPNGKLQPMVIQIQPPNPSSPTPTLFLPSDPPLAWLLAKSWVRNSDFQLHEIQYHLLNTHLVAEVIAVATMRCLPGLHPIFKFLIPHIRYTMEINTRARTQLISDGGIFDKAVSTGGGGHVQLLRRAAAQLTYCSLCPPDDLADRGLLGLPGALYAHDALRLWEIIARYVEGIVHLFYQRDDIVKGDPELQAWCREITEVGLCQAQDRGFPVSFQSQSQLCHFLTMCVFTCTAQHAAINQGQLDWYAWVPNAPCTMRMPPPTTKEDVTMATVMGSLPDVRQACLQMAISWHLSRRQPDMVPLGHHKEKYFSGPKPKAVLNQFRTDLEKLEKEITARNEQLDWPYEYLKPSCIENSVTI
Kind of assay: Inhibition of 12-LOX (unknown origin) using arachidonic acid as substrate at 10 uM.

For assay [5], the target named is T4, Polyunsaturated fatty acid 5-lipoxygenase (Homo sapiens) (UniProt P09917).
T4 sequence (whole entry): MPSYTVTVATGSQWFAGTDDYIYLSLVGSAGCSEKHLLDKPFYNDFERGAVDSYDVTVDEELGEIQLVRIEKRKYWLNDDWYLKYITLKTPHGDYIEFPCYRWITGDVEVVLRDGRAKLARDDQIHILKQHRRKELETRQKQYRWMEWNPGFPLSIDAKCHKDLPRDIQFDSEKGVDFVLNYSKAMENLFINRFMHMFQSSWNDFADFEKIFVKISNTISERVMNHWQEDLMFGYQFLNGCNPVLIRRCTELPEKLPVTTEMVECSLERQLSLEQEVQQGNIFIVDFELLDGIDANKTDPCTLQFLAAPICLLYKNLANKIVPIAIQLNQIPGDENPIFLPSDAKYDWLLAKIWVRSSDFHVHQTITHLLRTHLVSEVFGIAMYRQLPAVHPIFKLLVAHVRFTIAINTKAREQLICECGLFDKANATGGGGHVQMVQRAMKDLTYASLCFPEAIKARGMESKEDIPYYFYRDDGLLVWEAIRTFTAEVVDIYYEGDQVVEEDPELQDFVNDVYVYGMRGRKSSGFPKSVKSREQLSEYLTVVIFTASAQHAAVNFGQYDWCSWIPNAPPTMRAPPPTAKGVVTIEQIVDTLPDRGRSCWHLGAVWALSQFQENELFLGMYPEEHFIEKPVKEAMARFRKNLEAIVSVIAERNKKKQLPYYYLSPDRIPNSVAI
Kind of assay: Inhibition of 5-LOX (unknown origin) using arachidonic acid as substrate at 10 uM by cell based assay.

In assay [6] the target is Prostaglandin G/H synthase 1 (Homo sapiens) (UniProt P23219). Kind of assay: Inhibition of COX1 (unknown origin) using arachidonic acid as substrate at 10 uM.
Chain of Prostaglandin G/H synthase 1 (Homo sapiens) (P23219 whole entry): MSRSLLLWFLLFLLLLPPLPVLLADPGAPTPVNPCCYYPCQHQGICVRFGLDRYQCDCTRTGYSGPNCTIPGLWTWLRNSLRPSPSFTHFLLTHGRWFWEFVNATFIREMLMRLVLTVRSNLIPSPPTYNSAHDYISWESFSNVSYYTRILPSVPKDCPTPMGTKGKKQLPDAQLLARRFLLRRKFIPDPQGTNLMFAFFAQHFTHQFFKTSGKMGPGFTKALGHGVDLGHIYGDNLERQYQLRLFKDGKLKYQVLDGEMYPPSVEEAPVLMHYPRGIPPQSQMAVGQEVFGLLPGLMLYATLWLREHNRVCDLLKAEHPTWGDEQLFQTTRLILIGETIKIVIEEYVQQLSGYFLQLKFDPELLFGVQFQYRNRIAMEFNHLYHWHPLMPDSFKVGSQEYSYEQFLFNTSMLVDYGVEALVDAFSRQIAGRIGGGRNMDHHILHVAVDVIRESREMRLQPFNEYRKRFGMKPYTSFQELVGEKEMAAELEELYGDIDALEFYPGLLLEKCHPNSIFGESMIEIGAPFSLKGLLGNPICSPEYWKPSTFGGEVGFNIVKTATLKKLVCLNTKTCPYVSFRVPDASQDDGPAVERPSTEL
For assay [7], the target named is T4, Polyunsaturated fatty acid 5-lipoxygenase (Homo sapiens). Kind of assay: Inhibition of 5-LOX (unknown origin) using arachidonic acid as substrate at 10 uM.

In general, IC50 refers to the concentration needed to halve the response being measured. By inhibition is commonly meant the change of the read-out against control, counted positive when it falls.

Active and inactive are the calls of the source. The calls are words filed in the database; no cut-off is given here.

As to `Cn1cc(Cl)c(C(=O)Nc2ccc(F)cc2Cl)n1`, the IC50 entry in assay [1] is given as “Not Active”.
`CN(C)S(=O)(=O)n1ccc(C(=O)Nc2ccc(F)cc2Cl)n1`: the IC50 entry in assay [1] is listed as “Not Active”.
Turning to `CCCCCCNC(=O)n1cc(CCCC)c(C(=O)Nc2ccc(F)cc2Cl)n1`, the IC50 entry in assay [2] and in assay [1] was “Not Active” in each case.
Take `O=C(Nc1ccc(F)cc1Cl)c1ccn(S(=O)(=O)c2cccc(C(F)(F)F)c2)n1`: the IC50 was determined as 1940 nM in assay [2] (read-out: IC50) and 1060 nM in assay [1] (read-out: IC50).
For `O=C(Nc1ccccc1Cl)c1ccn(C(=O)c2cccc(Cl)c2)n1`, in assay [3], the inhibition result was “inactive”. Moreover, the inhibition was 18% in assay [4], 16% in assay [5], 11% in assay [6] and 8% in assay [7].
Consider `O=C(Nc1ccc(F)cc1Cl)c1ccn(C(=O)Cc2ccccc2)n1`, for which the IC50 result in assay [1] is recorded as “Not Active”.

The values above are taken from ChEMBL document CHEMBL3596137, “N-Substituted pyrazole-3-carboxamides as inhibitors of human 15-lipoxygenase” (Bioorg Med Chem Lett, 2015).
